Measurements taken from ChEMBL document CHEMBL4840347, “Design, synthesis, and biological evaluation of novel somatostatin receptor subtype-2 agonists: Optimization for potency and risk mitigation of hERG and phospholipidosis” (Bioorg Med Chem, 2021).

Legend:
[1] = Total clearance in rat at 1 mg/kg, iv; assay type: ADME, organism-based; details: in vivo
[2] = Tmax in rat at 3 mg/kg, po; assay type: ADME, organism-based; details: in vivo
[3] = Half life in rat at 3 mg/kg, po; assay type: ADME, organism-based; details: in vivo
[4] = AUC (0 to 24 hrs) in rat at 1 mg/kg, iv; assay type: ADME, organism-based; set-up: time < 24 hr, route intravenous, dose 1 mg/kg; details: in vivo
[5] = AUC (0 to 24 hrs) in rat at 10 mg/kg, po; assay type: ADME, organism-based; set-up: time < 24 hr, route oral, dose 10 mg/kg; details: in vivo
[6] = Permeability of compound by PAMPA assay; assay type: ADME; details: read-out: permeability
[7] = AUC (0 to 24 hrs) in rat at 3 mg/kg, po; assay type: ADME, organism-based; set-up: time < 24 hr, route oral, dose 3 mg/kg; details: in vivo
[8] = Half life in rat at 10 mg/kg, po; assay type: ADME, organism-based; details: in vivo
[9] = Tmax in rat at 10 mg/kg, po; assay type: ADME, organism-based; details: in vivo
[10] = Cmax in rat at 3 mg/kg, po; assay type: ADME, organism-based; set-up: route oral, dose 3 mg/kg; details: in vivo
[11] = Volume of distribution in rat at 1 mg/kg, iv; assay type: ADME, organism-based; details: in vivo, read-out: Vdss
[12] = Half life in rat at 1 mg/kg, iv; assay type: ADME, organism-based; details: in vivo
[13] = Oral bioavailability in rat at 10 mg/kg; assay type: ADME, organism-based; details: in vivo
[14] = Half life in rat liver microsomes measured up to 60 mins in presence of NADPH by LC-MS/MS analysis; assay type: ADME, Microsome
[15] = Oral bioavailability in rat at 3 mg/kg; assay type: ADME, organism-based; details: in vivo

| SMILES | clearance [1] [mL/min/kg] | Tmax [2] [h] | half-life [3] [h] | AUC ([4]; 24 h) [ng·h/mL] | AUC [5] [ng·h/mL] | Papp [6] [×10⁻⁶ cm/s] | AUC(0-t) at 24 h [7] [ng·h/mL] | half-life [8] [h] | Tmax [9] [h] | Cmax [10] [ng/mL] | Vd [11] [L/kg] | half-life [12] [h] | F [13] [%] | half-life [14] [h] | AUC(0-t) at 24 h [4] [ng·h/mL] | bioavailability [15] [%] |
| --- | --- | --- | --- | --- | --- | --- | --- | --- | --- | --- | --- | --- | --- | --- | --- | --- |
| COc1cc(OC)cc(-c2cncc(-c3nc4cc(C)ccc4[nH]3)c2N2CCC(N)CC2)c1 | 25.1 | 0.5 | 6.5 | 686 | 291 | 0.71 | 291 | 6.5 | 0.5 | 56.6 | 8.23 | 5.8 | 42 | > 3.33 |  |  |
| Cc1cc(C(=O)Nc2cncc(-c3cc(Cl)cc(Cl)c3)c2N2CCC(N)CC2)n(C)n1 | 60.7 | 2.3 | 5.6 |  |  | 41 | 271 |  |  | 32.1 | 23.2 | 6.1 |  | > 3.33 | 264 | 35.5 |
